From patent publication US12403104B2, “Compounds and methods of promoting myelination” (Case Western Reserve University, priority 2016, dated 2025)

Legend:
[1] = test system: mouse epiblast stem cell-derived OPCs; test: In vitro phenotypic screening of OPCs (MBP+ oligodendrocytes at 72 h); assay type: cell-based
Protocol: Then, 40,000 cells were seeded per well in differentiation medium and allowed to attach for 30 min before addition of drug. […] Sterols were added to cells as an ethanol solution (0.2% final ethanol concentration). […] Cells were incubated under standard conditions (37° C., 5% CO2) for 3 days and fixed with 4% paraformaldehyde (PFA) in phosphate buffered saline (PBS) for 20 min. Fixed plates were washed with PBS (200 μL per well) twice, permeabilized with 0.1% Triton X-100 and blocked with 10% donkey serum (v/v) in PBS for 40 min. […] Nuclei were visualized by DAPI staining (Sigma; 1 μg/ml).

[2] = test system: mouse primary OPCs; test: MBP+ oligodendrocyte formation from mouse primary OPCs; assay type: cell-based; details: 72 h
Protocol: To obtain mouse primary OPCs, whole brain was removed from post-natal day 2 pups anesthetized on ice. Brains were placed in cold DMEM/F12, and the cortices were isolated and the meninges were removed. The cortices were manually chopped and processed with the Tumor Dissociation Kit (Miltenyi) and incubated at 37° C. for 10 minutes. The cell suspension was filtered through a […] filter and centrifuged at 200×g for 4 minutes at room temperature. The cells were washed in DMEM/F12, re-centrifuged and plated in poly-Ornithine and Laminin-treated flasks containing DMEM/P12 supplemented with N2 Max, B27 (ThermoFisher), 20 ng/mL FGF, and 20 ng/mL PDGF. […] were passaged once prior to treatment. Media was changed every 48 hours.
Then, 40,000 cells were seeded per well in differentiation medium and allowed to attach for 30 min before addition of drug. For dose-response testing of all molecules except sterols, a 1000× compound stock in dimethyl sulphoxide (DMSO) was added to assay plates with 0.1 μL solid pin multi-blot replicators (V & P Scientific; VP 409), resulting in a final primary screening concentration of 1×. Sterols were added to cells as an ethanol solution (0.2% final ethanol concentration). […] Cells were incubated under standard conditions (37° C., 5% CO2) for 3 days and fixed with 4% paraformaldehyde (PFA) in phosphate buffered saline (PBS) for 20 min. […]

[3] = test system: OPCs; test: GC/MS-based sterol profiling in OPCs; assay type: cell-based, mouse; details: GC/MS, 24 h treatment (siRNA 96 h)
[4] = target: T1, EBP (Mus musculus, UniProt P70245); test: EBP enzymatic assay (GC/MS); assay type: biochemical; details: 10 μM, zymostenol 25 μM
T1 construct: active EBP was obtained from mouse microsomes; from tissue
T1 sequence (P70245 1-230): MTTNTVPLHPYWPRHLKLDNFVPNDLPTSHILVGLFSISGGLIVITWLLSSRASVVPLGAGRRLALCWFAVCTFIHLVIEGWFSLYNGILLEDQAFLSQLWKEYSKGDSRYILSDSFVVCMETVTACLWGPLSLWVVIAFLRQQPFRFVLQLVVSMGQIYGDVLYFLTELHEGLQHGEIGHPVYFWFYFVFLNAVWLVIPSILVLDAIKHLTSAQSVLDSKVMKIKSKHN

[5] = test system: LPC-lesioned spinal cord; test: LPC focal demyelination of spinal cord, remyelination; assay type: in vivo, mouse; details: ifenprodil 10 mg per kg, tamoxifen 2 mg per kg, daily intraperitoneal, 8 days
[6] = test system: human glioma cells (GBM528); test: GC/MS sterol profiling in human glioma cell line; assay type: cell-based; details: 24 h
[7] = test system: LPC-lesioned spinal cord; details: earlier work; cited from earlier work

## Cc1cc(C)c(CNC(=O)c2cc(-c3ccc(CN4CCOCC4)cc3)cc3c2cnn3C2CCCC2)c(=O)[nH]1 [EPZ005687]
[1]
  formation of MBP+ oligodendrocytes from OPCs: enhanced oligodendrocyte formation
[2]
  oligodendrocyte formation from mouse primary OPCs: enhanced oligodendrocyte formation
[3]
  sterol levels / sterol intermediate accumulation in OPCs: uniquely caused accumulation of zymosterol and zymostenol in OPCs
[4]
  inhibition of EBP enzymatic activity: directly inhibiting EBP enzymatic activity

## CC(C(O)c1ccc(O)cc1)N1CCC(Cc2ccccc2)CC1 (stereo not drawn) [ifenprodil, Ifenprodil]
[5]
  remyelination of LPC lesion: remyelination was widespread throughout the lesion
[6]
  accumulation of sterol intermediates in human glioma cell line: caused accumulation of the expected sterol intermediates

## Clc1ccc(COC(Cn2ccnc2)c2ccc(Cl)cc2Cl)c(Cl)c1 (stereo not drawn) [miconazole, Miconazole]
[6]
  accumulation of sterol intermediates in human glioma cell line: caused accumulation of the expected sterol intermediates
[7]
  remyelination in mouse models of demyelination (previously established): enhances remyelination in mouse models of demyelination

## CC/C(=C(\c1ccccc1)c1ccc(OCCN(C)C)cc1)c1ccccc1 [tamoxifen, Tamoxifen]
[3]
  sterol levels / sterol intermediate accumulation in OPCs: induced accumulation of zymostenol and zymosterol and decreased basal sterol levels
[4]
  inhibition of EBP enzymatic activity: clear inhibition
[5]
  remyelination of LPC lesion: remyelination was widespread throughout the lesion
[6]
  accumulation of sterol intermediates in human glioma cell line: caused accumulation of the expected sterol intermediates
